How the values were obtained:
[1] = system: Ixodes Ricinus (male, female and nymphs); experiment: Tick repellent testing (treated cylinder/stick and human volunteer's forearm); assay type: in vivo; conditions: stick test, FIG. 4
Aedes albopictus = experiment: Mosquito repellent testing on human forearm in test cage (ASTM E951-83); assay type: in vivo; conditions: text summary of Table 4
Method: The mosquitos used in this study were Aedes albopictus. Mosquito repellent activity of the tested samples (listed in Table 2) was assessed by using the test cage as described by Songkro et al (2012), in the American Society for Testing and Materials (ASTM) standard […]-83 Laboratory testing of non-commercial mosquito repellent composition on the skin. The sample was tested on human subject. The same volunteers tested all the formulations under laboratory conditions. According to the method described by Coucci and Müller (2018), 50 adult female Aedes albopictus mosquitoes were transferred into the mosquito proof enclosed cage with the help of aspirator tube. The compositions to be tested were applied to the forearm ([…]) of the volunteers. The applied hand was introduced into the cage and the number of bites was recorded. After every 30 minutes the volunteer hands were subjected to the cage for 5 minutes and the numbers of mosquito bites were noted. Same procedure was implemented for control. Control study is done by placing the forearm in cage without application of tested sample. Before starting each replication, the mosquitoes' propensity to bite is assessed by inserting an untreated forearm into the cage. […] According to this procedure different compositions were tested by applying on the forearm with fresh mosquitoes every time of testing.

[2] = system: Ixodes larvae, nymph forms and adults (female and male); experiment: Field testing, treated tick sheet dragging; assay type: in vivo; conditions: treated cotton sheet dragged 35 x 10 m; 5% vanillin in all FA and HFA solutions; vs commercial product Punkkiassa (19% IR3535)
Source text: Tick-dragging method was adopted to study the effectiveness of the product in repelling ticks in their natural habitat in Ruissalo, Turku. A square of 1 m^2 cotton sheet was divided in three parallel divisions and the borders were marked with pencil: 100*45 cm division on both sides (A and B) and a 100*10 cm neutral strip in the middle (N). Both A and B were both treated with a solution from a solution test pair (or left untreated for control drags) from that side of the sheet that would face the ground during dragging. The neutral zone was always left untreated. The evenly sprayed solution was let settle on the sheet for ˜15 minutes before the first drag. The sheet was dragged for 10 m with the treated side down with moderate pace in an even, tick-friendly biotope. After every 10 meter drag, the treated side was inspected for Ixodes larvae, nymph forms and adults (female and male). Number of individuals in every (4) form per department (A, B or N) was counted. Every test pair/sheet was dragged 35 times during the same day between 08:00 AM and 02:00 PM. No new solution was added to the sheet during the day. The time of start for every draw was checked. We tested different product types for field studies like FA (5, 10, 20%) and HFA (10 & 20%) and also included a commercial tick repellent (Punkkiassa) as a positive control. […]

[3] = system: nymphs and the female ticks of the Ixodus ricinu species; experiment: Tick repellency of IR3535 (test results received from Entostudio laboratory, Italy); conditions: in vivo

SMILES	tick repellent activity (in words) [1]	mosquito repellent activity (in words) (Aedes albopictus)	repellency of nymphs in field test (FIG. 5) [2]	repellency of nymphs and female ticks [3]
C=C1CC[C@H]2O[C@]2(C)CC[C@@H]2[C@@H]1CC2(C)C [Caryophyllene oxide]	not very effective			
CC(=O)CC/C=C(\C)CC/C=C(\C)CCC=C(C)C [FA, Farnesyl acetone]		efficient repellent activity	repelled nymphs very effectively compared to the commercial product	
CC(=O)CCCC(C)CCCC(C)CCCC(C)C (stereo not drawn) [HFA, 6,10,14-trimethyl-pentadecanone]		efficient repellent activity	repelled nymphs very effectively compared to the commercial product	
CCCCN(CCC(=O)OCC)C(C)=O [IR3535, 3-[N-butyl-N-acetyl]-aminopropionic acid, ethyl ester]				does not repel the nymphs and the female ticks
